In patent US20080145439A1, “NA[…] FORMULATIONS” (NEUROSYSTEC CORPORATION, priority 2006, published 2008):

Assays:
Format in all cases: physicochemical
[1] = Water solubility of gacyclidine forms
Text: (§1) However, in polymeric containers or in the presence of excess precipitated drug, the apparent pKA is perturbed to lower values due to interaction of the basic form of the drug with polymeric surfaces or its own insoluble precipitate. In the conjugate acid form, gacyclidine is extremely water soluble. Solutions of greater than 1 molar (M) concentration can be prepared from the hydrochloride salt. However, solutions of the acid form of the drug are thermally unstable and subject to acid-catalyzed decomposition to give stoichiometric piperidine (1 mole per mole of drug lost) and multiple other organic products.

[2] = Thermal decomposition / stability of gacyclidine in solution; details: for decomposition rate: 54° C.; for Time for 10% Loss: Ringer's Lactate
[3] = Apparent pKA of gacyclidine in aqueous solution
Text: as §1

[4] = Binding (loss) of gacyclidine to silicone; details: room temperature, pH 6, 100 μM gacyclidine solution; depends on time and temperature of exposure
Text: Delivery of gacyclidine in such a manner presents numerous challenges, however. Various characteristics of gacyclidine are discussed in more detail below. […] Specifically, catheters, drug reservoirs, pumps, anti-bacterial filters and other components of drug delivery systems are typically fabricated from polymers approved for human implantation.

In the case of `C[C@H]1CCCC[C@@]1(c1cccs1)N1CCCCC1.Cl` [Gacyclidine Hydrochloride Salt, Gacyclidine], the “solubility in water (concentration of clear solution)” value [1] is reported as “greater than 1 M”, the “solubility in water (concentration of clear solution)” value ([1]; listed as hydrochloride salt of gacyclidine) is reported as over 1000 mM and the decomposition rate ([2]; 10 mM HCl) is reported as 0.52 day⁻¹. For the same compound, the “Time for 10% Loss” value ([2]; 37° C., pH 5.5) was 3.7 ± 0.1 days, the “Time for 10% Loss” value ([2]; 37° C., pH 6.0) was 3.82 ± 0.03 days and the “Time for 10% Loss” value ([2]; 37° C., pH 7.4) was 6.1 ± 0.4 days. The “Time for 10% Loss” value ([2]; 37° C., pH 7.4, listed as gacyclidine in the hydrochloride salt form) was 6.1 days and the “time required for 10% loss” value ([2]; 37° C., slightly acidic conditions) was 3.8 days.

With `CC1CCCCC1(c1cccs1)N1CCCCC1` (centres unmarked) [basic form of gacyclidine, Gacyclidine] the solubility in water ([1]; above pH 9) was under 0.002 mM, the decomposition rate ([2]; 1 mM NaOH) was 0.0013 day⁻¹ and the “stability relative to the conjugate acid form” value ([2]; from decomposition rates at 54° C.) was 200-400 times.

For `CC1CCCCC1(c1cccs1)N1CCCCC1` (centres unmarked) [Gacyclidine], the “temperature dependence of apparent pKA” value [3] was −0.016 ΔpKA/° C, the “apparent pKA in glass vials higher than in polypropylene” value ([3]; 37° C., 1 mM gacyclidine) was “about 0.7 pH units” and the “apparent pKA” value ([3]; room temperature, glass containers) was 7.4. For the same compound, the “apparent pKA (from residual gacyclidine in solution)” value ([3]; room temperature, 0.1 M hydrochloride salt diluted into buffered aqueous solution to 1 mM, glass or polypropylene vials) was 6.7, the “pH above which precipitation is observed” value ([1]; 0.1 M hydrochloride salt diluted into buffered aqueous solution to 1 mM) was over 7 pH and the “gacyclidine retained by silicone” value [4] was “up to 60%”.
